Legend:
[1] = tested on: blood vessel formation in Matrigel plugs; assay: In vivo mouse matrigel plug assay (hemoglobin content of plug); design: species or system C57BL/6 mice
Experimental: Antiangiogenic activities in vivo of the compounds of the formula 1 were determined by mouse matrigel plug assay.
The mixture of Matrigel, heparin (30 units), and bFGF (25 ng) were injected subcutaneously into C57BL/6 mice. The test compounds were injected subcutaneously at 2.2 mg/mL with matrigel, or administrated orally at 2 mg/day (twice a day, each 1 mg) during 4 days (total 8 mg/mouse). After 4-7 days, the skin of the mouse was pulled back, and matrigel plug was excised. The hemoglobin contents inside the Matrigel plugs were measured using the Drabkin method and Drabkin reagent (kit 525, Sigma) for the quantitation of blood vessel formation.

ischemic hearts = assay: Cardioprotective activity in ischemic heart model of anesthetized rats; conditions: Rat in vivo, 0.3 mg/kg i.v.
Experimental: In order to determine whether the compounds of formula 1 are protective for ischemic hearts, experiments determining the anti-ischemic effects of the compounds on rats were conducted as follows. Male rats (350-450 g, obtained from the Experimental Animal Team of the Korea Research Institute of Chemical Technology) were anesthetized by the intraperitoneal injection of pentobarbital at a dose of 75 mg/kg. After trachetomy, the rats were rendered to respire artificially at a rate of 60/min with a stroke volume of 10 ml/kg. Cannulars were inserted into the fermoral vein and the fermoral artery and used for drug administration and blood pressure measurement, respectively. In the ischemic myocardial injury models, the body temperature has an important influence on the results. To avoid the change in the body temperature, a body temperature measuring probe was inserted into the rectum of each rat and the body temperature was constantly kept at 37° C. with the aid of a homeothermic blanket control unit. Afterwards, during testing, a continuous measurement was made of the mean arterial blood pressures and heart rates from the rats. For the measurement of the blood pressure, a pressure transducer (Statham P23XL, Grass Ins., MA, U.S.A.) was used. The heart rate was measured by a tachometer (ECG/RATE Coupler, Hugo Sachs Electronic, German) identified as Biotachometer. In addition, all of the changes occurring were continuously recorded through the Gould 2000 chart recorder ([…] Linearcorder W R 3310, Hugo Sachs Electronic). The left coronary artery was occluded according to the Selye H. method as follows. The rats underwent a left thoracotomy operation for partial opening of the chest and the right-side chest was pressurized by the middle finger of the left hand to push the heart out. Immediately after the left anterior descending coronary artery hereinafter referred to as (LAD) was carefully stitched using a suture needle with 5-0 silk ligature, the heart was then repositioned in the thoracic cavity while both ends of the ligature were situated outside. The opposite ligature ends were passed through a PE tube (PE100, 2.5 cm) and allowed to stand loose for 20 min for stabilization. Via the cannula inserted into the femoral vein, vehicles or drugs were administered into the rats which were rendered to stand for 30 min in order to sufficiently elicit the efficacies of the drugs. […] From the images input into the computer, the area of the normal blood stream tissue region which appeared blue in a computer monitor and the area which appeared colorless were measured. The percentage of the colorless area to the total area of each slice was calculated and multiplied by the weight of each slice to determine the area at risk (AAR) of each slice. […]

SPF SD rats = conditions: rat, in vivo, po;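 note: Six-week-old animals, two per group, followed across an observation period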
[2] = tested on: Chick chorioallantoic membrane (CAM); assay: CAM (chorioallantoic membrane) assay; format: in vivo
Experimental: Chick chorioallantoic membrane (CAM) assays were performed to measure the inhibitory effects on angiogenesis in vivo of the compounds of the formula 1.
Fertilized chick eggs were incubated under constant humidified (90%) egg breeder at 37° C. On the third day of incubation, about 2 mL of egg albumin was aspirated by an 18-gauge hypodermic needle through the small hole drilled at the narrow end of the eggs, to detach the developing CAM from the shell. And the shell covering the air sac was punched out and removed by forcep, and the shell membrane on the floor of the air sac was peeled away. After more incubation of two more days, sample-loaded thermanox coverslips were air-dried, and applied to the CAM surface to test the angiogenic inhibition by the test compounds. Three days later, 1 to 2 mL of 10% fat emulsion (Intralipose) was injected into the chorioallantoic and observed avascular zone under a dissecting microscope. The negative control was implanted only thermanox coverslip, while the positive control was treated with retinoic acid (1 μg/egg). […] Independent experiment was repeated three times and at least more than 20 eggs in each experiment were used.

COC(OC)[C@@]1(C)Oc2ccc([N+](=O)[O-])cc2[C@@H](N(Cc2ncc[nH]2)c2ccc(Cl)cc2)[C@@H]1O [Example 1, (2S,3S,4R)-3,4-dihydro-2-dimethoxymethyl-3-hydroxy-2-methyl-6-nitro-4-[N-(4-chlorophenyl)-N-(1H-imidazol-2-ylmethyl)amino]-2H-1-benzopyran]
% Inhibition (hemoglobin quantity) ([1]; S. C, 2.2 mg/mL with matrigel): 79%
% Inhibition (hemoglobin quantity) ([1]; oral, 2 mg/day during 4 days): 94%
AAR/LV (%) (ischemic hearts): 33.4%
IZ/AAR (%) (ischemic hearts): 41.2%
clinical symptoms, body weight and mortality (SPF SD rats): no significant changes
% Inhibition (positive eggs) ([2]; 0.5 μM/egg): 62%
% Inhibition (positive eggs) ([2]; 1.5 μg/egg): 84%

Reference: patent US7279497B2, “Benzopyran derivatives substituted with secondary amines including imidazole, their preparation and pharmaceutical compositions containing them” (Korea Research Institute of Chemical Technology, priority 2002, dated 2007)
